Assay results: US20020172972A1, “Use of a selectively inactivatable enzyme to digest contaminating nucleic acid” (President and Fellows of Harvard College, priority 2001, published 2002)

Target: T1, micrococcal nuclease (Staphylococcus aureus, UniProt P00644)
T1 construct: purchased Sigma N5386
Assay: inactivation of micrococcal nuclease by EGTA, read out in the real time T7 DNA amplification reaction
Assay type: biochemical
Conditions: 2 mM EGTA added after incubation with 1 mM CaCl2
From the text: Micrococcal nuclease is obtained from Sigma (Sigma catalog number N5386 from Staphylococcus aureus, Foggi strain; 100-300 units/mg). EGTA, Ethylene glycol-bis(2-aminoethyl ether)-N,N,N′,N′-tetraacetic acid, is used as the micrococcal inactivating-agent and is obtained from Sigma (Sigma catalog number E8145. Tetrasodium salt). […]
DNA was quantitated by its ability to stimulate a real time DNA amplification reaction based on the T7 replication system, as described in PCT number WO 00/41524, published Jul. […] In this assay, the time required for the synthesized DNA to reach a designated threshold fluorescence value is proportional to the log of the input concentration of DNA over more than a 10,000,000-fold range of DNA concentration.

O=C(O)CN(CCOCCOCCN(CC(=O)O)CC(=O)O)CC(=O)O [EGTA, Ethylene glycol-bis(2-aminoethyl ether)-N,N,N′,N′-tetraacetic acid]
effect of EGTA on micrococcal nuclease activity: inactivated
